Key:
[1] = system: HUVEC human umbilical vein endothelial cell line; test: MTT viability assay, normal HUVEC cells; format: cell-based; details: 72 h, mean ± SD of three independent experiments
Protocol: (§1) All the human tumour cell lines MCF-7, HL-60, HCT-116, and HUVEC were cultured in Dulbecco’s Modified Eagle’s Medium (DMEM) with 10% fetal bovine serum, 2 mM L-glutamine and 100 µg/mL penicillin/streptomycin. Cells were maintained at 37 °C in 5% CO2 in a humidified incubator. All cells were sub-cultured three times/week by trypsinization using TrypLE Express (1X).
(§2) The Benzotriazole compounds were evaluated for antiproliferative effect using the MTT viability assay of various cancer cell lines (MCF-7, HCT-116 and HL-60) and the normal human umbilical vein endothelial cell line (HUVEC) to calculate the relative IC50 values for each compound. Cells were seeded in triplicate in 96-well plates at a density of 10 × 10^3 cells/mL in a total volume of 200 µL per well. 0.1% of DMSO was used as a vehicle control. After this time, they were treated with 2 µL test compound which had been pre-prepared as stock solutions in ethanol to furnish the concentration range of study, 10 nM to 100 µM, and re-incubated for a further 72 h. The culture medium was then removed, and the cells washed with 100 µL phosphate buffered saline (PBS) and 50 µL MTT added, to reach a final concentration of 1 mg/mL MTT added. Cells were incubated for 2 h in darkness at 37 °C. At this point solubilisation was begun through the addition of […] DMSO and the cells maintained at room temperature in darkness for 20 min to ensure thorough colour diffusion before reading the absorbance. Plates were incubated for 72 h at 37 °C + 5% CO2. The MTT (5 mg/mL in PBS) was added and incubated for another 4 h, and the optical density was detected with a microplate reader at 570 nm. Results were expressed as percentage viability relative to vehicle control (100%). Dose response curves were plotted and IC50 values (concentration of drug resulting in 50% reduction in cell survival) were obtained using the commercial software package Prism (GraphPad Software, Inc., La Jolla, CA, USA). All the experiments were repeated in at least three independent experiments.

Bcl-2 = test: Western blot of Bcl-2 expression in HL-60 cells; format: cell-based, human; details: HL-60, 0.5 and 1 µM, compared to the untreated group
Protocol: HL-60 cells were seeded at a density of 1 × 10^5 cells/flask in T25 flasks. […] HL-60 cells were harvested in RIPA buffer supplemented with protease inhibitors (Roche Diagnostics), phosphatase inhibitor cocktail 2 (Sigma-Aldrich), and phosphatase inhibitor cocktail 3 (Sigma-Aldrich). Equal quantities of protein (as determined by a BCA assay) were resolved by SDS-PAGE (12%) followed by transfer to PVDF membranes. Membranes were blocked in 5% bovine serum albumin/TBST for 1 h. Membranes were incubated in the relevant primary antibodies at 4 °C overnight, washed with TBST, and incubated in horseradish peroxidase conjugated secondary antibody for 1 h at rt and washed again. Western blot analysis was performed as described above using antibodies directed against BAX [1:1000] (Cell Signaling Technology), PARP [1:500] (Cell Signaling Technology) and Bcl-2 [1:500] (Cell Signaling Technology) followed by incubation with a horseradish peroxidase-conjugated anti-mouse antibody [1:2000] (Promega, Madison, WI, USA). All blots were probed with β-actin antibody [1:5000] (Sigma) to confirm equal loading. Proteins were detected using enhanced chemiluminescent Western blot detection (Clarity Western ECL substrate) (Bio Rad) on the ChemiDoc MP System (Bio Rad). Experiments were performed on three independent occasions.

HL-60 cells = test: Cell cycle analysis by PI flow cytometry; format: cell-based, human; details: 1 µM
Protocol: HL-60 cells were seeded at a density of 1 × 10^5 cells/well in 6-well plates and treated with CA-4 and compound BI9 (1 µM) for 48 and 72 h. The cells were collected by trypsinization and centrifuged at 800× g for 15 min. Cells were washed twice with ice-cold PBS and fixed in ice-cold 70% ethanol overnight at −20 °C. Fixed cells were centrifuged at 800× g for 15 min and stained with 50 μg/mL of PI, containing 50 μg/mL of DNase-free RNase A, at 37 °C for 30 min. The DNA content of cells (10,000 cells/experimental group) was analysed by flow cytometer at 488 nm using a FACSCalibur flow cytometer (BD Biosciences, San Jose, CA, USA) and all data were recorded and analysed using the CellQuest Software (Becton-Dickinson).

PARP = test: Western blot of PARP cleavage in HL-60 cells; format: cell-based, human; details: HL-60, after a 48 h treatment
Protocol: HL-60 cells were seeded at a density of 1 × 10^5 cells/flask in T25 flasks. After 48 h, whole cell lysates were prepared from untreated cells or cells treated with vehicle control (EtOH, 0.1% v/v) or compound BI9 (0.5 and 1 μM). HL-60 cells were harvested in RIPA buffer supplemented with protease inhibitors (Roche Diagnostics), phosphatase inhibitor cocktail 2 (Sigma-Aldrich), and phosphatase inhibitor cocktail 3 (Sigma-Aldrich). Equal quantities of protein (as determined by a BCA assay) were resolved by SDS-PAGE (12%) followed by transfer to PVDF membranes. Membranes were blocked in 5% bovine serum albumin/TBST for 1 h. Membranes were incubated in the relevant primary antibodies at 4 °C overnight, washed with TBST, and incubated in horseradish peroxidase conjugated secondary antibody for 1 h at rt and washed again. Western blot analysis was performed as described above using antibodies directed against BAX [1:1000] (Cell Signaling Technology), PARP [1:500] (Cell Signaling Technology) and Bcl-2 [1:500] (Cell Signaling Technology) followed by incubation with a horseradish peroxidase-conjugated anti-mouse antibody [1:2000] (Promega, Madison, WI, USA). All blots were probed with β-actin antibody [1:5000] (Sigma) to confirm equal loading. Proteins were detected using enhanced chemiluminescent Western blot detection (Clarity Western ECL substrate) (Bio Rad) on the ChemiDoc MP System (Bio Rad). […]

[2] = system: MCF-7 human breast cancer cell line; test: MTT viability assay, MCF-7; format: cell-based; details: Homo sapiens, MCF7, 72 h, mean ± SD of three independent experiments, read-out: Antiproliferative Activities IC50, MCF-7
Protocol: as §1, §2

S=c1[nH]c(-n2nnc3ccccc32)cn1-c1ccc(Cl)cc1Cl [BI9, 4-(1H-Benzo[d][1,2,3]Triazol-1-yl)-1-(2,4-Dichlorophenyl)-1H-Imidazole-2(3H)-Thione]
IC50 [1]: > 100 µM
Expression of pro-survival protein Bcl-2 (Bcl-2): down-regulated
Proportion of HL-60 cells in G2/M phase (HL-60 cells; 48 h): 32.3%
Population in the sub-G1 phase (apoptosis) (HL-60 cells; 48 h, untreated cells 1.5%): 23.1%
Proportion of HL-60 cells in G2/M phase (HL-60 cells; 72 h): 35.1%
Population in the sub-G1 phase (apoptosis) (HL-60 cells; 72 h, untreated cells 3.5%): 27.5%
PARP cleavage (indicator of apoptosis) (PARP): confirmed
IC50 [2]: 3.57 ± 0.16 µM

Reference: paper PMC8512560, “Design, Synthesis, and Antipoliferative Activities of Novel Substituted Imidazole-Thione Linked Benzotriazole Derivatives” (Molecules, 2021)
